Measurements reported in US20120301866A1, “LIQUID FORMULATION HAVING DISSOLVED GASES USEFUL FOR PRESERVING BIOLOGICAL MATERIAL” (L'Air Liquide, Société Anonyme pour I'Etude et …, priority 2010, published 2012).
Entries after “also recorded” stand apart in the source; their conditions may differ.

How the values were obtained:
Assay type in all cases: in vivo
rat kidneys [1] = test: Immunohistochemistry of transplanted rat kidneys (anti-active caspase-3, anti-CD10); settings: day 14 after transplantation; for active caspase-3 expression (immunohistochemistry): marker for apoptosis
Description: In order to evaluate the renal graft preservation properties of argon or other gases, rat kidneys were removed and stored in a gas-saturated liquid solution according to the present invention. After six hours of organ preservation at a temperature of 4° C. and at atmospheric pressure, the rat kidneys are transplanted and the survival time, renal function and reperfusion/ischemia injuries are studied by means of biochemical and histological analyses. Immunodetections were carried out on serial cryostat sections 5 μm thick, using certain specific antibodies, i.e. anti-active caspase-3 and anti-CD10. The kidneys of a normal rat are used as control. After having been rinsed, the sections are incubated for 30 minutes with biotinylated secondary antibodies and they are then visualized using avidin-biotin peroxidase.

rat kidneys [2] = test: Rat kidney transplantation after cold storage in gas-saturated Celsior solution: renal function (creatinine clearance, urinary albumin); settings: for overall effect on the preservation of a renal graft: compared with the other experimental groups; for level of albumin in the urine (urinary albumin): kidney stored 6 h at 4 °C, atmospheric pressure, in gas-saturated Celsior, days 7 and 14 after transplantation
Description: In accordance with the present invention, argon gas was dissolved in a liquid organ preservation solution available on the market, i.e. the CELSIOR solution, the composition of which is given in table 1, in order to obtain a liquid formulation in accordance with the present invention.
For the purposes of comparison, other gases, i.e. xenon, air and nitrogen, were dissolved in the same type of liquid solution.
(§1) In order to evaluate the renal graft preservation properties of argon or other gases, rat kidneys were removed and stored in a gas-saturated liquid solution according to the present invention.
(§2) After six hours of organ preservation at a temperature of 4° C. and at atmospheric pressure, the rat kidneys are transplanted and the survival time, renal function and reperfusion/ischemia injuries are studied by means of biochemical and histological analyses.
On days 0 (pretransplantation), 7 and 14 (after transplantation), biochemical analyses, i.e. creatinine clearance and urinary albumin, are carried out in the manner described by M. Yin et al., in “Carolina rinse solution minimizes kidney injury and improves graft function and survival after prolonged cold ischemia.” Transplantation 2002; 73:1410-1420).
Creatinine clearance is a parameter that is used to evaluate renal function. A high clearance corresponds to good renal function, while the presence of albumin in the urine (urinary albumin) indicates renal damage since, normally, there is no albumin in the urine when the kidney is normal.

rat kidneys [3] = test: Histology of transplanted rat kidneys (hematoxylin-eosin-safran, optical microscopy); settings: day 14 after transplantation; kidney stored 6 h at 4 °C in gas-saturated solution
Description: as §1, §2
On day 14 after transplantation, the kidneys are removed, weighed and cut into blocks. The kidneys are then fixed with a buffered 4% formaldehyde infusion for 24 h and they are embedded in paraffin. Five-micrometer sections are obtained from the blocks and stained with hematoxylin-eosin-safran in order to examine them by optical microscopy.

[Ar] [argon]
active caspase-3 expression (immunohistochemistry) (rat kidneys [1]): discrete and focal losses | CD10 expression (immunohistochemistry) (rat kidneys [1]; weak CD10 expression corresponds to a damaged kidney): discrete and focal losses of CD 10 expression | overall effect on the preservation of a renal graft (rat kidneys [2]): very positive and advantageous effects | level of albumin in the urine (urinary albumin) (rat kidneys [2]): much lower than the levels of albumin (urinary albumin) obtained with the other transplanted kidneys | histological observations of transverse kidney sections (rat kidneys [3]): the architectural integrity of the kidney is preserved without any obvious glomerular modification; also recorded: intact normal morphology as in the control group, with no modification nor any necrosis

N#N [nitrogen, reference compound]
active caspase-3 expression (immunohistochemistry) (rat kidneys [1]): significant expression of active caspase-3

[Xe] [xenon, reference compound]
active caspase-3 expression (immunohistochemistry) (rat kidneys [1]): the active caspase-3 expression has been lost because of the serious acute tubular necrosis | overall effect on the preservation of a renal graft (rat kidneys [2]): some good effects | level of albumin in the urine (urinary albumin) (rat kidneys [2]): an effect greater than that which was obtained with the controls, but which is less than that obtained with argon
